# Experimental data published in PubChem BioAssay (NCI).
#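 Results reflect a 48-hour exposure of cells in 96-well plates to compound at five concentrations. Abbreviation: GI50, concentration required for 50% inhibition of growth. TGI is the concentration that stops growth completely.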
# Experiments:
# Assay in all cases: NCI anticancer screen, dose series, 48 h
# IGROV1 ovarian = test system: IGROV1 ovarian
# HT29 colon = test system: HT29 colon
# UACC-62 melanoma = test system: UACC-62 melanoma
# A498 renal = test system: A498 renal
# HCT-116 colon = test system: HCT-116 colon
# HOP-62 NSCLC = test system: HOP-62 NSCLC
# A549 NSCLC = test system: A549 NSCLC
# SK-OV-3 ovarian = test system: SK-OV-3 ovarian
# OVCAR-5 ovarian = test system: OVCAR-5 ovarian
# HCC-2998 colon = test system: HCC-2998 colon
# 786-0 renal = test system: 786-0 renal
# SN12C renal = test system: SN12C renal
# SK-MEL-2 melanoma = test system: SK-MEL-2 melanoma
# U251 CNS = test system: U251 CNS
# OVCAR-8 ovarian = test system: OVCAR-8 ovarian
# SK-MEL-5 melanoma = test system: SK-MEL-5 melanoma
# PC-3 prostate = test system: PC-3 prostate
# TK-10 renal = test system: TK-10 renal
# COLO 205 colon = test system: COLO 205 colon
# ACHN renal = test system: ACHN renal
# CAKI-1 renal = test system: CAKI-1 renal
# UACC-257 melanoma = test system: UACC-257 melanoma
# DU-145 prostate = test system: DU-145 prostate
# K-562 leukemia = test system: K-562 leukemia
# MDA-MB-435 = test system: MDA-MB-435
# OVCAR-4 ovarian = test system: OVCAR-4 ovarian
# CCRF-CEM leukemia = test system: CCRF-CEM leukemia
# MALME-3M melanoma = test system: MALME-3M melanoma
# NCI/ADR-RES ovarian = test system: NCI/ADR-RES ovarian
# KM12 colon = test system: KM12 colon
# MCF7 breast = test system: MCF7 breast
# EKVX NSCLC = test system: EKVX NSCLC
# RPMI-8226 leukemia = test system: RPMI-8226 leukemia
# M14 melanoma = test system: M14 melanoma
# SF-539 CNS = test system: SF-539 CNS
# SNB-19 CNS = test system: SNB-19 CNS
# SW-620 colon = test system: SW-620 colon
# T-47D breast = test system: T-47D breast
# NCI-H460 lung = test system: NCI-H460 lung
# OVCAR-3 ovarian = test system: OVCAR-3 ovarian
# RXF 393 renal = test system: RXF 393 renal
# BT-549 breast = test system: BT-549 breast
# MOLT-4 leukemia = test system: MOLT-4 leukemia
# NCI-H226 lung = test system: NCI-H226 lung
# NCI-H23 lung = test system: NCI-H23 lung
# SK-MEL-28 melanoma = test system: SK-MEL-28 melanoma
# HOP-92 NSCLC = test system: HOP-92 NSCLC
# MDA-MB-231 breast = test system: MDA-MB-231 breast
# SNB-75 CNS = test system: SNB-75 CNS
# HCT-15 colon = test system: HCT-15 colon
# UO-31 renal = test system: UO-31 renal
# SF-268 CNS = test system: SF-268 CNS
# HL-60(TB) leukemia = test system: HL-60(TB) leukemia
# MDA-MB-468 breast = test system: MDA-MB-468 breast
# NCI-H522 lung = test system: NCI-H522 lung
# LOX IMVI melanoma = test system: LOX IMVI melanoma
# HS 578T breast = test system: HS 578T breast
# SF-295 CNS = test system: SF-295 CNS
smiles,measurement,setting,value
O=C(c1ccc(OCCN2CCOCC2)cc1)C1[C@H](c2ccc(Cl)cc2)[C@@H](c2ccccc2)NC12C(=O)Nc1ccc(Cl)cc12 (stereo partly specified),GI50,IGROV1 ovarian,9.58 µM
same,TGI,IGROV1 ovarian,23.9 µM
same,GI50,HT29 colon,7.49 µM
same,TGI,HT29 colon,16.7 µM
same,GI50,UACC-62 melanoma,6.42 µM
same,TGI,UACC-62 melanoma,12.8 µM
same,GI50,A498 renal,8.24 µM
same,TGI,A498 renal,23.2 µM
same,GI50,HCT-116 colon,8.02 µM
same,TGI,HCT-116 colon,15.9 µM
same,GI50,HOP-62 NSCLC,9.46 µM
same,TGI,HOP-62 NSCLC,19.5 µM
same,GI50,A549 NSCLC,12.6 µM
same,TGI,A549 NSCLC,> 47.3 µM
same,GI50,SK-OV-3 ovarian,15.4 µM
same,TGI,SK-OV-3 ovarian,> 47.3 µM
same,GI50,OVCAR-5 ovarian,8.98 µM
same,TGI,OVCAR-5 ovarian,25.4 µM
same,GI50,HCC-2998 colon,7.6 µM
same,TGI,HCC-2998 colon,14.9 µM
same,GI50,786-0 renal,8.8 µM
same,TGI,786-0 renal,19.6 µM
same,GI50,SN12C renal,6.75 µM
same,TGI,SN12C renal,13 µM
same,GI50,SK-MEL-2 melanoma,7.85 µM
same,TGI,SK-MEL-2 melanoma,15.7 µM
same,GI50,U251 CNS,7.15 µM
same,TGI,U251 CNS,14.6 µM
same,GI50,OVCAR-8 ovarian,13.6 µM
same,TGI,OVCAR-8 ovarian,> 47.3 µM
same,GI50,SK-MEL-5 melanoma,5.4 µM
same,TGI,SK-MEL-5 melanoma,11.8 µM
same,GI50,PC-3 prostate,7.93 µM
same,TGI,PC-3 prostate,20.3 µM
same,GI50,TK-10 renal,9.96 µM
same,TGI,TK-10 renal,33.7 µM
same,GI50,COLO 205 colon,8.43 µM
same,TGI,COLO 205 colon,16.8 µM
same,GI50,ACHN renal,11.9 µM
same,TGI,ACHN renal,40.9 µM
same,GI50,CAKI-1 renal,8.1 µM
same,TGI,CAKI-1 renal,39.5 µM
same,GI50,UACC-257 melanoma,9.69 µM
same,TGI,UACC-257 melanoma,34.2 µM
same,GI50,DU-145 prostate,10.9 µM
same,TGI,DU-145 prostate,28.2 µM
same,GI50,K-562 leukemia,12.8 µM
same,TGI,K-562 leukemia,> 47.3 µM
same,GI50,MDA-MB-435,7.85 µM
same,TGI,MDA-MB-435,15.8 µM
same,GI50,OVCAR-4 ovarian,11 µM
same,TGI,OVCAR-4 ovarian,39.2 µM
same,GI50,CCRF-CEM leukemia,10.6 µM
same,TGI,CCRF-CEM leukemia,27.1 µM
same,GI50,MALME-3M melanoma,7.11 µM
same,TGI,MALME-3M melanoma,14.3 µM
same,GI50,NCI/ADR-RES ovarian,11.1 µM
same,TGI,NCI/ADR-RES ovarian,31.2 µM
same,GI50,KM12 colon,8.31 µM
same,TGI,KM12 colon,18.2 µM
same,GI50,MCF7 breast,8.4 µM
same,TGI,MCF7 breast,27.8 µM
same,GI50,EKVX NSCLC,8.46 µM
same,TGI,EKVX NSCLC,27.2 µM
same,GI50,RPMI-8226 leukemia,10.3 µM
same,TGI,RPMI-8226 leukemia,29.9 µM
same,GI50,M14 melanoma,8.04 µM
same,TGI,M14 melanoma,15.8 µM
same,GI50,SF-539 CNS,8 µM
same,TGI,SF-539 CNS,15 µM
same,GI50,SNB-19 CNS,10.6 µM
same,TGI,SNB-19 CNS,34.9 µM
same,GI50,SW-620 colon,8.77 µM
same,TGI,SW-620 colon,18.9 µM
same,GI50,T-47D breast,13.5 µM
same,TGI,T-47D breast,> 47.3 µM
same,GI50,NCI-H460 lung,8.9 µM
same,TGI,NCI-H460 lung,19.1 µM
same,GI50,OVCAR-3 ovarian,8.24 µM
same,TGI,OVCAR-3 ovarian,20.1 µM
same,GI50,RXF 393 renal,6.14 µM
same,TGI,RXF 393 renal,13.6 µM
same,GI50,BT-549 breast,8.58 µM
same,TGI,BT-549 breast,23.5 µM
same,GI50,MOLT-4 leukemia,7.53 µM
same,TGI,MOLT-4 leukemia,27.9 µM
same,GI50,NCI-H226 lung,8.06 µM
same,TGI,NCI-H226 lung,19.5 µM
same,GI50,NCI-H23 lung,8.72 µM
same,TGI,NCI-H23 lung,18.2 µM
same,GI50,SK-MEL-28 melanoma,7.8 µM
same,TGI,SK-MEL-28 melanoma,14.6 µM
same,GI50,HOP-92 NSCLC,6.85 µM
same,TGI,HOP-92 NSCLC,18.7 µM
same,GI50,MDA-MB-231 breast,7.62 µM
same,TGI,MDA-MB-231 breast,14.4 µM
same,GI50,SNB-75 CNS,4.11 µM
same,TGI,SNB-75 CNS,> 47.3 µM
same,GI50,HCT-15 colon,7.53 µM
same,TGI,HCT-15 colon,15.9 µM
same,GI50,UO-31 renal,7.25 µM
same,TGI,UO-31 renal,23.7 µM
same,GI50,SF-268 CNS,10.6 µM
same,TGI,SF-268 CNS,> 47.3 µM
same,GI50,HL-60(TB) leukemia,12 µM
same,TGI,HL-60(TB) leukemia,34.9 µM
same,GI50,MDA-MB-468 breast,7.43 µM
same,TGI,MDA-MB-468 breast,20.4 µM
same,GI50,NCI-H522 lung,9.75 µM
same,TGI,NCI-H522 lung,21.3 µM
same,GI50,LOX IMVI melanoma,7.35 µM
same,TGI,LOX IMVI melanoma,13.7 µM
same,GI50,HS 578T breast,7.88 µM
same,TGI,HS 578T breast,21.6 µM
same,GI50,SF-295 CNS,7.41 µM
same,TGI,SF-295 CNS,14.4 µM
